Columns and labels:
[1] = system: Akt-enhanced β-catenin activity (TOP-Luc); assay: HTS TOPFlash/FOPFlash luciferase reporter dose-response; format: cell-based
[2] = molecular target: T1, Akt:β-catenin interaction (EGFP-AKT and mCherry-β-catenin) (Mus musculus, UniProt Q02248); assay: FRET assay (acceptor photobleaching), 293T cells; format: cell-based
T1 construct: host or cells: 293T cells
T1 sequence (Q02248 1-781): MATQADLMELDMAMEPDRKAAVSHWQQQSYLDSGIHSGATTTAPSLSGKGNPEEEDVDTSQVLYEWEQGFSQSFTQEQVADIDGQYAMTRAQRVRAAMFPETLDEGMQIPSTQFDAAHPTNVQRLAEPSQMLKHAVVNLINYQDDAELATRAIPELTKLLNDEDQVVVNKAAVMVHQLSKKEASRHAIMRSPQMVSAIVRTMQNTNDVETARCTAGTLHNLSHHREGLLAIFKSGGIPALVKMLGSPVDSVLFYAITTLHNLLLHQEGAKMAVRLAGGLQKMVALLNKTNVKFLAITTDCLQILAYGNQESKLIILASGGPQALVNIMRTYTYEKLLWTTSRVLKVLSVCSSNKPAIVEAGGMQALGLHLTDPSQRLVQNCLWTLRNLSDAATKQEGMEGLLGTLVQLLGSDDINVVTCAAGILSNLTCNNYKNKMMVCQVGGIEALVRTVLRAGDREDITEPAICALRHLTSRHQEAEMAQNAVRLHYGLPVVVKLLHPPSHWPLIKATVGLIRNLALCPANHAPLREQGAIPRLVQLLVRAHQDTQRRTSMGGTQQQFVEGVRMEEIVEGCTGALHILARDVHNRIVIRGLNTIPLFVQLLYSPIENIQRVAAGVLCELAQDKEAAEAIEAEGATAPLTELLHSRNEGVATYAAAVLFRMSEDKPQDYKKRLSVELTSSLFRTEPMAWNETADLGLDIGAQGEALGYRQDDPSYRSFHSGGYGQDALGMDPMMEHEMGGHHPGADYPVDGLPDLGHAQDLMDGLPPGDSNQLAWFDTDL
Method: Cells transfected with EGFP-AKT and mCherry-β-catenin were treated with vehicle or Doxorubicin at the indicated concentrations and FRET efficiency was determined.
FIG. 7C provides the FRET verification between Akt and β-catenin.
FRET measurement was performed by using the acceptor photobleaching method. Briefly, 293T cells were transfected with EGFP-AKT and mCherry-β-catenin (Addgene, #39531, #55001). A Perkin-Elmer Ultraview spinning disc system with a CSU-X1 Yokogawa disc was used for imaging. A 40×1.2 NA Plan-apochromatic objective was used, and emission was collected onto a C9100 Hamamatsu Photonics EM-CCD. EGFP was excited with a 488 nm laser, and emission was collected through a 500-555 nm band pass filter. mCherry was illuminated, and photobleached, with a 561 nm laser. Emission of mCherry was collected with a 580-650 nm band pass filter. 6 images of EGFP were acquired before and 8 images after bleaching of the mCherry with intense 561 nm light. After subtraction of camera background, the average intensity of EGFP in a region of interest spanning the bleached cell was determined in the 4 images before acceptor bleach (I1), or the 4 images after acceptor bleach (12). FRET efficiency is reported as 1−(I1/I2). Calculations were based on >500 cell images.

[3] = system: BM cells isolated from leukemic double mutants (LSCs, HSPCs); assay: In vitro treatment of BM cells from leukemic mice; format: cell-based, mouse; conditions: 11, 33 or 100 nM, 72 hours
Method: Doxorubicin, 0105375, and thioguanosine were added to 11, 33 or 100 nM and cultured for 72 hours and analyzed by flow cytometry for LSCs as in FIGS. 1A-1E. Fold change before and after culture for each population is indicated relative to equivalent vehicle control concentrations.
Doxorubicin, 0105375, and thioguanosine were added to 11, 33 or 100 nM and cultured for 72 hours and analyzed by flow cytometry for HSPCs as in FIGS. 1A-1E. Fold change before and after culture for each population is indicated relative to equivalent vehicle control concentrations.
Bone marrow cells from leukemic mice at 8 weeks post-induction were cultured overnight at 5-20×10^4 cells per well in 96-well U-bottom tissue culture plates (Becton, Dickinson and Company; Cat. No. 353077) in HSC expansion media in low O2 conditions as previously described (Perry et al. 2011). Doxorubicin (Sigma; D1515), 0105375 (University of Kansas CMLD compound), or Thioguanosine was mixed with HSC expansion media and added to the cultures to obtain final concentrations of 11, 33, 100 nM. Equivalent amounts of DMSO alone (vehicle control) were added to parallel cultures for comparison. Half-media changes were performed approximately every 24 hours. Cultures were analyzed after 72 hours exposure to the indicated drug.

[4] = system: LSCs and blast cells of leukemia mice; assay: Immune-checkpoint blocker treatment / CD8+ T cell depletion in leukemia mice; format: in vivo, mouse; conditions: [Low]DXR after anti-CD8 depletion
Method: For immune-checkpoint blocker treatment, 250 μg anti-PD-1 or isotype control (BioXcell) was injected intravenously every other day for a total of 3 injections. For CD8^+ T cell depletion, 2×100 μg and 1×250 μg of anti-CD8a or isotype control (BioXcell) was injected intravenously every other day.

HEK-TOP cell lines = assay: Cell Titer Glo cytotoxicity profile (CTG); conditions: concentration range as worded in the sentence
Method: Activity of compounds was tested against HEK-TOP cells vs. HEK FOP cells for inhibition of luciferase activity. The cytotoxicity profiles of the compounds were also tested using Cell Titer Glo assay (Promega) on HEK-TOP cell lines.

Structure (SMILES): COc1cccc2c1C(=O)c1c(O)c3c(c(O)c1C2=O)C[C@@](O)(C(=O)CO)C[C@@H]3O[C@H]1C[C@H](N)[C@H](O)[C@H](C)O1 [DXR, doxorubicin]
- concentration at which Akt-enhanced β-catenin activity (TOP-Luc) is specifically inhibited (compare to FOP-Luc control) ([1]; HEK-293 TOPFlash vs FOPFlash Akt^Act βcat^Act cells): lower than 1 μM
- specificity (FOP-Luc) at higher concentrations ([1]; higher concentrations (above 1 μM)): reduced specificity
- concentration at which Akt:β-catenin interaction is inhibited [2]: < 1 µM
- FRET between EGFP-AKT and mCherry-β-catenin ([2]; versus vehicle treated cells): decreased with increasing concentrations and exposure time
- effect on HSPCs relative to vehicle [3]: lower effect
- effect on LSCs relative to vehicle [3]: significantly reduced
- effect on LSCs after CD8+ T cell depletion [4]: no longer significantly reduced LSCs
- toxicity (CTG) (HEK-TOP cell lines): increased toxicity

Source: patent US12186332B2, “Methods for overcoming WNT/beta-catenin anti-cancer resistance in leukemia stem cells” (STOWERS INSTITUTE FOR MEDICAL RESEARCH, priority 2019, dated 2025)
